From PubChem BioAssay (NCI)
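Compound exposure: 48 hours, 5 concentrations, 96-well plates. TGI: total growth inhibition.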

How the values were obtained:
Assay in all cases: NCI-60 cell line screen, 48 h
[1] = tested on: NCI-H522 lung
[2] = tested on: RPMI-8226 leukemia
[3] = tested on: TK-10 renal
[4] = tested on: HCT-15 colon
[5] = tested on: KM12 colon
[6] = tested on: MOLT-4 leukemia
[7] = tested on: LOX IMVI melanoma
[8] = tested on: ACHN renal
[9] = tested on: U251 CNS
[10] = tested on: MALME-3M melanoma
[11] = tested on: A549 NSCLC
[12] = tested on: UACC-257 melanoma
[13] = tested on: DMS 114 small cell lung
[14] = tested on: IGROV1 ovarian
[15] = tested on: HOP-92 NSCLC
[16] = tested on: SK-OV-3 ovarian
[17] = tested on: HT29 colon
[18] = tested on: K-562 leukemia
[19] = tested on: DU-145 prostate
[20] = tested on: MDA-MB-231 breast

Structure (SMILES) | TGI [1] [µM] | TGI [2] [µM] | TGI [3] [µM] | TGI [4] [µM] | TGI [5] [µM] | TGI [6] [µM] | TGI [7] [µM] | TGI [8] [µM] | TGI [9] [µM] | TGI [10] [µM] | TGI [11] [µM] | TGI [12] [µM] | TGI [13] [µM] | TGI [14] [µM] | TGI [15] [µM] | TGI [16] [µM] | TGI [17] [µM] | TGI [18] [µM] | TGI [19] [µM] | TGI [20] [µM]
C=CCC1(CN(C)C)CC/C(=C\c2ccc(Cl)cc2)C1=O (stereo unspecified) | 41.9 | 53.6 | > 100 | 58.4 | > 78.5 | 53 | 52 | > 100 | > 100 | > 100 | > 100 | 54.1 | > 72.2 | > 31.6 | > 100 | > 100 | 60.1 | 76.3 | – | –
C=C(C)C1CCC2(C)CC1c1c(c(C)cc3c1[nH]c1ccccc13)O2 (stereo unspecified) | > 25 | > 25 | – | > 25 | > 25 | > 25 | > 25 | > 25 | > 25 | > 25 | > 25 | – | > 25 | > 25 | > 25 | > 25 | > 25 | > 25 | – | –
COC(=O)[C@@]1(C)/C(=N/NS(=O)(=O)c2ccc(C)cc2)CCC[C@@H]1C | > 100 | 72.6 | > 100 | 31.9 | > 100 | > 100 | 27.5 | > 100 | > 100 | > 100 | > 100 | > 100 | 45 | > 100 | > 100 | > 100 | > 100 | > 100 | – | –
COc1ccc(C(C#N)NNC(=O)Cc2ccccc2)cc1OC (stereo unspecified) | > 100 | > 100 | > 100 | > 100 | > 100 | > 100 | > 100 | > 100 | > 100 | > 100 | > 100 | > 100 | > 100 | > 100 | > 100 | > 100 | > 100 | > 100 | – | –
CC1(C)CC(=O)CC(=Nc2ccc([N+](=O)[O-])cc2)C1 | > 100 | > 100 | > 100 | > 100 | > 100 | > 100 | 38.8 | > 100 | 31.7 | > 100 | > 100 | > 100 | > 100 | > 100 | – | > 100 | > 100 | > 100 | – | –
O=[N+]([O-])c1ccc(-c2cnc3ccccn23)cc1 | > 100 | > 100 | – | > 100 | > 100 | > 100 | > 100 | > 100 | > 100 | > 100 | > 100 | > 100 | > 100 | – | – | > 100 | > 100 | > 100 | – | –
CC(C)=CC1CC(=[N+]=[N-])C(=O)C1(C)C (stereo unspecified) | > 100 | > 74.6 | > 100 | > 100 | > 100 | > 100 | > 100 | > 100 | > 100 | > 100 | > 100 | > 100 | > 100 | > 100 | > 100 | > 100 | > 31.6 | > 100 | – | –
O=C(CSc1c2ccccc2nc2ccccc12)Nc1ccccc1-c1ccccc1NC(=O)CSc1c2ccccc2nc2ccccc12 | 37.2 | 30.4 | > 100 | 66.6 | > 62 | > 54.4 | 39.1 | > 100 | > 100 | > 91.3 | > 100 | 75.8 | 46.8 | 42.8 | 96.1 | > 100 | > 100 | > 30.1 | – | –
COc1ccc(/C=C(\C(C)=O)C(=O)Nc2ccccc2)cc1 | > 100 | > 100 | > 100 | > 100 | > 100 | > 100 | > 100 | > 100 | > 100 | > 100 | > 100 | > 100 | > 100 | > 100 | > 100 | > 100 | > 100 | > 100 | – | –
C[N+](C)(C)CC1CCC/C1=N\OC(=O)c1ccccc1 (stereo unspecified) | > 100 | > 100 | – | > 100 | > 100 | > 100 | > 100 | > 100 | > 100 | > 100 | > 100 | > 100 | > 100 | > 100 | – | > 100 | > 100 | > 100 | – | –
CCOC1c2cc(C(C)C)c(O)c(O)c2[C@@]23CCCC(C)(C)C2C1OC3=O (stereo partly specified) | 98.6 | > 100 | > 100 | > 100 | – | > 100 | > 100 | > 100 | > 100 | > 100 | > 100 | > 100 | > 100 | > 100 | – | > 100 | > 100 | > 100 | – | –
C=CN1C(=O)[C@H](Oc2ccccc2)[C@@H]1c1ccccc1 | 91.3 | 57 | > 100 | > 100 | > 100 | 91.3 | – | > 100 | > 100 | > 100 | 85 | > 100 | > 100 | > 100 | – | 78.8 | 69.4 | > 100 | – | –
CCOC(=O)/C(=C/c1ccc(N(C)C)cc1)N(CC)CC | > 100 | 89 | > 100 | > 100 | > 100 | > 100 | 78.5 | > 100 | > 100 | > 100 | > 100 | > 100 | > 100 | > 100 | > 100 | > 100 | – | 65.8 | – | –
CCCCC/C=C1\CCC(CN(C)C)C1=O (stereo unspecified) | 13.4 | – | > 40.1 | 10 | 17 | 30.8 | 20.6 | 27.3 | 20.7 | 28.7 | > 63.5 | 32.2 | 29 | 32.6 | 27.1 | 27.4 | 62.3 | 28.2 | – | –
O=S(=O)(c1ccccc1)N1N=C2c3ccccc3CCC[C@H]2C1c1ccccc1 (stereo partly specified) | > 100 | > 100 | > 100 | > 100 | > 100 | > 100 | > 100 | > 100 | > 100 | > 100 | > 100 | > 100 | > 100 | > 100 | > 100 | > 100 | > 100 | > 100 | – | –
C=CCN(C(=O)CNC(=O)C(F)(F)F)c1cc(OCc2ccccc2)c2c(c1)c(C)cn2S(=O)(=O)c1ccccc1 | > 100 | > 100 | > 100 | > 100 | > 100 | > 100 | > 100 | > 100 | > 100 | > 100 | > 100 | > 100 | – | > 100 | > 100 | > 100 | > 100 | > 100 | > 100 | > 100
CN(CCN(C)C(=O)CCn1cc(F)c(=O)[nH]c1=O)C(=O)CCn1cc(F)c(=O)[nH]c1=O | 12.5 | > 100 | > 100 | > 100 | > 100 | > 100 | > 100 | > 100 | > 100 | > 100 | > 100 | – | > 100 | > 100 | – | – | > 100 | > 100 | – | –
Cn1cnnc1Sc1c([N+](=O)[O-])ncn1C | 25.6 | > 100 | > 100 | – | > 100 | > 100 | > 100 | > 100 | > 100 | 46.1 | > 100 | > 100 | > 100 | > 100 | 91.2 | > 100 | > 100 | > 100 | – | –
Nc1ccccc1N=Cc1cc2cc([N+](=O)[O-])ccc2s1 | > 100 | 46.8 | 29.6 | > 100 | > 100 | 13.6 | 97.9 | 40.3 | 28.2 | 81.7 | 30.9 | 51.2 | – | 99.3 | 55.5 | 29.7 | > 100 | 35.1 | 36.1 | 39.2
